Reference: patent US20140303246A1, “USE OF ADAMANTANE DERIVATIVES FOR THE TREATMENT OF ACTINIC KERATOSIS” (MERZ Pharma GmbH & Co. KGaA, priority 2011, published 2014)

How the values were obtained:
[1] = Resazurin assay, viability of cells by metabolic activity; assay type: cell-based; conditions: human, primary human epidermal keratinocytes (NHEK), metabolic activity (Resazurin) as read-out, read-out: IC50 for the cytolytic/cytotoxic effect based on metabolic activity
Procedure: (§1) By using primary human epidermal keratinocytes (NHEK, FIG. 1) the cytolytic potential of several drug compound was investigated.
(§2) The viability of the cells was monitored by their metabolic activity using the Resazurin—assay. Eight different concentrations (up to 1 mM) of amantadine were investigated. Viability of the cells was plotted against the different concentration of test compound.
(§3) From the resulting sigmoid-curve the IC50 value for the cytolytic effect was determined and given in the respective figure. FIG. 1 depicts the relative viability vs. the concentration on NHEK cells using metabolic activity as read-out.
(§4) For each of these compounds, the same experiments were performed in an analogous fashion to the compound of Example 1 except that the test items were prepared in separate plates starting with the double concentrated maximal test concentration followed by a 1:3 serial dilution and then added to the cells. The test items were tested at 6 replicates/concentration. In addition to metabolic activity also the release of cytoplasmatic-lactate dehydrogenase (LDH) was used to monitor cell death. Early release (after 6 hrs) indicate membrane damage a primary mode of action

[2] = system: primary human epidermal keratinocytes (NHEK); assay: as above; assay type: cell-based
Procedure: as §1, §2, §3, §4

[3] = system: NHEK cells; assay: Release of cytoplasmatic lactate dehydrogenase (LDH) to monitor cell death / membrane damage; assay type: cell-based, human
Procedure: as §4

Structure (SMILES) | IC50 [1] [µM] | cytotoxic effect (in words) [2] | LDH-release at 6 hrs (early membrane damage) [3]
CC12CC3CC(C)(C1)CC(N)(C3)C2 [Memantine, 3,5-dimethyladamantan-1-amine] | 330 | clear cytotoxic activity | early membrane damage
CC(N)C12CC3CC(CC(C3)C1)C2 (stereo not shown) [Rimantadine, 1-(1-adamantyl)ethanamine] | 660 | – | –
